From patent publication US8779144B2, “Bicycloheteroaryl compounds as P2X7 modulators and uses thereof” (Evotec (US) Inc., priority 2006, dated 2014)

What was measured:
[1] = tested on: IL-1β release from THP-1 cells; assay: IL-1β release assay in differentiated THP-1 cells stimulated with BzATP (ELISA); format: cell-based; conditions: Homo sapiens; for inhibition at 0.3 µM: 0.3 uM compound, BzATP 250 uM, read-out: IL-1β % Inhib. @ 0.3 uM.; for IC50: released IL-1β as in Example 9, four parameter logistic fit, read-out: IL-Iβ IC50
Experimental: THP-1 cells (ATCC Cat #285-IF-100) are plated in 96 well plates at a concentration of 200,000 cells per well and allowed to differentiate in RPMI-1640 media (ATCC Cat #30-2001) containing 10% FBS, 100 IU/mL penicillin, 100 ug/mL streptomycin, 100 ng/mL LPS and 100 ng/mL IFN-γ for 16 hours. Following differentiation, the cells are treated for an additional 2 hours in RPMI-1640 media containing 100 IU/mL penicillin, 100 ug/mL streptomycin and fresh LPS at 100 ng/mL. The cells are then pretreated for 30 minutes with the compound of interest at the appropriate concentration in RPMI media containing 100 IU/mL penicillin, 100 ug/mL streptomycin. Following the pretreatment 2′,3′-O-(4-benzoylbenzoyl)-adenosine 5′-triphosphate (Sigma Aldrich Cat # B6396) is added to a final concentration of 250 uM and the cells are incubated for an additional 45 minutes. 30 uL of cell supernatant is then collected and IL-113 levels determined via ELISA (R&D systems Cat. # HSLB50) according to manufacturer's recommendations using the Tecan Safire plate reader. Background adjusted IL-1β levels of drug treated and non-treated cells are used to calculate the percent inhibition. […]
The compounds set forth in Table 1 were tested for activity in a cellular model as described herein. Specifically, cells were pretreated with differing amounts of the compound under test and released IL-1β determined as in Example 9, above. Measurements were made and IC50 values, presented in Table 2, below, were determined by fitting the data to a four parameter logistic equation using GraphPad Prism software (GraphPad Software, Inc). The equation may be expressed by the following formula: Y=Bottom+(Top−Bottom)/(1+10^((LogEC50−X)*HillSlope)) Where X is the logarithm of concentration, Y is the response and Y starts at Bottom and goes to Top with a sigmoid shape.

[2] = Half-life in human liver microsomes (HLM); format: in vitro ADME; conditions: 1 μM compound, 0.78 mg/mL HLM, NADPH, pH 7.4, 37° C.
Experimental: Test compounds (1 μM) are incubated with 3.3 mM MgCl2 and 0.78 mg/mL HLM (HL101) in 100 mM potassium phosphate buffer (pH 7.4) at 37° C. on the 96-deep well plate. The reaction mixture is split into two groups, a non-P450 and a P450 group. NADPH is only added to the reaction mixture of the P450 group. An aliquot of samples of P450 group is collected at 0, 10, 30, and 60 min time point, where 0 min time point indicated the time when NADPH is added into the reaction mixture of P450 group. An aliquot of samples of non-P450 group is collected at −10 and 65 min time point. Collected aliquots are extracted with acetonitrile solution containing an internal standard. The precipitated protein is spun down in centrifuge (2000 rpm, 15 min). The compound concentration in supernatant is measured by LC/MS/MS system.
The half-life value is obtained by plotting the natural logarithm of the peak area ratio of compounds/internal standard versus time. The slope of the line of best fit through the points yields the rate of metabolism (k). This is converted to a half-life value using following equations: Half-life=ln 2/k

IC50 [1]	half-life at 1 μM [2]	SMILES	inhibition at 0.3 µM [1]
0.73 nM	18.6 min	O=C(NCC12CC3CC(CC(C3)C1)C2)c1cccc2c(=O)[nH]ccc12 [Compound 2028, 1-Oxo-1,2-dihydro-isoquinoline-5-carboxylic acid (adamantan-1-ylmethyl)-amide]	> 76%
79 nM	23.4 min	O=C(NCC1(O)CCCCCC1)c1cccc2c(=O)[nH]ccc12 [Compound 2030]	51 to 75%
48.6 nM	22.8 min	Cn1ccc2c(C(=O)NCC3(O)CCCCCC3)cccc2c1=O [Compound 2032]	> 76%
1.37 nM	13.8 min	O=C(NCC1(O)CCCCCC1)c1cccc2c(=O)n(Cc3ccc4c(c3)OCCO4)ccc12 [Compound 2033, 2-(2,3-Dihydro-benzo[1,4]dioxin-6-ylmethyl)-1-oxo-1,2-dihydro-isoquinoline-5-carboxylic acid (1-hydroxy-cycloheptylmethyl)-amide]	> 76%
133 nM	15.6 min	O=C(NCC1(O)CCCCCC1)c1cccc2c(=O)n(CC3CCOCC3)ccc12 [Compound 2034]	51 to 75%
5.66 nM	38.4 min	CC(C)C(CO)n1ccc2c(C(=O)NCC3(O)CCCCCC3)cccc2c1=O (centres unmarked) [Compound 2035, 2-(1-Hydroxymethyl-2-methyl-propyl)-1-oxo-1,2-dihydro-isoquinoline-5-carboxylic acid (1-hydroxy-cycloheptylmethyl)-amide]	> 76%
39.2 nM	51 min	O=C(NCC1CCCCCC1)c1cccc2c(=O)n(C(CO)CO)ccc12 [Compound 2040]	> 76%
54 nM	18 min	O=C(NCC1CCCCCC1)c1cccc2c(=O)n(CCO)ccc12 [Compound 2041, 2-(2-Hydroxy-ethyl)-1-oxo-1,2-dihydro-isoquinoline-5-carboxylic acid cycloheptylmethyl-amide]	> 76%
23 nM	38.4 min	CC1(C)CCCC(O)(CNC(=O)c2cccc3c(=O)n(C(CO)CO)ccc23)C1 (centres unmarked) [Compound 2043]	> 76%
573 nM	31.8 min	O=C(NCC1(O)CCCCCC1)c1cccc2c(=O)n(C(CO)CO)ccc12 [Compound 2047]	26 to 50%
326 nM	42.6 min	O=C(NCC1(O)CCCCCC1)c1cccc2c(=O)n(CCO)ccc12 [Compound 2048, 2-(2-Hydroxy-ethyl)-1-oxo-1,2-dihydro-isoquinoline-5-carboxylic acid (1-hydroxy-cycloheptylmethyl)-amide]	26 to 50%
7.46 nM	36 min	C[C@H](C(N)=O)n1ccc2c(C(=O)NCC3CCCCCC3)cccc2c1=O [Compound 2062]	> 76%
17.3 nM	66 min	C[C@@H](C(N)=O)n1ccc2c(C(=O)NCC3CCCCCC3)cccc2c1=O [Compound 2063]	> 76%
0.15 nM	19.2 min	C[C@H](C(N)=O)n1ccc2c(C(=O)NCC34CC5CC(CC(C5)C3)C4)cccc2c1=O [Compound 2064, 2-((R)-1-Carbamoyl-ethyl)-1-oxo-1,2-dihydro-isoquinoline-5-carboxylic acid (adamantan-1-ylmethyl)-amide]	> 76%
158 nM	–	O=C(NCc1ccc(F)c(C(F)(F)F)c1)c1cccc2c(=O)n(C3CC3)ccc12 [Compound 2075]	> 76%
119 nM	–	O=C(NCc1ccc(C(F)(F)F)c(F)c1)c1cccc2c(=O)n(C3CC3)ccc12 [Compound 2076]	> 76%
162 nM	–	O=C(NCc1cccc(C(F)(F)F)c1F)c1cccc2c(=O)n(C3CC3)ccc12 [Compound 2077]	51 to 75%
59.4 nM	–	O=C(NCc1ccc(Cl)c(C(F)(F)F)c1)c1cccc2c(=O)n(C3CC3)ccc12 [Compound 2078]	> 76%
356 nM	–	Cc1ccc2c(c1C(=O)NCc1ccc(C(F)(F)F)c(F)c1)CCN(C(=O)C1CC1)C2 [Compound 2080]	26 to 50%
149 nM	–	Cc1ccc2c(c1C(=O)NCc1ccc(C(F)(F)F)c(F)c1)CCN(C(=O)C1CCC1)C2 [Compound 2081]	> 76%
667 nM	–	Cc1ccc2c(c1C(=O)NCc1ccc(C(F)(F)F)c(F)c1)CCN(C(=O)C1(C)CC1)C2 [Compound 2082]	0 to 25%
